From ChEMBL document CHEMBL4118060, “A unique mid-sequence linker used to multimerize the lipid-phosphatidylserine (PS) binding peptide-peptoid hybrid PPS1” (Eur J Med Chem, 2017)
Active and inactive are the calls of the source. The calls are words filed in the database; no cut-off is given here. Bridge positions count the residues as written; N and C are the ends. Square brackets hold non-standard residues; d marks the D form. Side chains are listed from the residue outwards. Peptide text beside a SMILES is read from it. I, II: the chains in the order shown. ξ: configuration not given here. Gly(N-piperonyl) = O=C(O)CNCc1ccc2c(c1)OCO2; N(4-MeOBn)Gly = COc1ccc(CNCC(=O)O)cc1; Nrpe = C[C@@H](NCC(=O)O)c1ccccc1; NAllylGly = C=CCNCC(=O)O; AEEA = NCCOCCOCC(=O)O; Nlys = NCCCCNCC(=O)O; ξK = NCCCCC(N)C(=O)O; ξM = CSCCC(N)C(=O)O; Nme = COCCNCC(=O)O; βAla = NCCC(=O)O

Test system: HCC4017
Test: Cytotoxicity against human HCC4017 cells assessed as decrease in cell viability at 0.001 to 50 uM after 24 hrs by MTS assay
Assay type: functional, cell-based

| Structure (SMILES) | Activity |
| --- | --- |
| COc1ccc(CN(CC(=O)N(CCCCN)CC(=O)NC(CCCCN)C(=O)NC(CCCCN)C(=O)NC(CCSC)C(N)=O)C(=O)CN(C(=O)CN(Cc2ccc3c(c2)OCO3)C(=O)CN[C@H](C)c2ccccc2)[C@H](C)c2ccccc2)cc1 (some centres undefined) (H-[Nrpe][Gly(N-piperonyl)][Nrpe][N(4-MeOBn)Gly][Nlys][ξK][ξK][ξM]-NH2) | inactive |
| COc1ccc(CN(CC(=O)NC(CCCCNC(=O)C(CCCCN)NC(=O)C(CCCCN)NC(=O)CN)C(=O)NC(CCCCN)C(=O)NC(CCCCN)C(N)=O)C(=O)CN(C(=O)CN(Cc2ccc3c(c2)OCO3)C(=O)CN[C@H](C)c2ccccc2)[C@H](C)c2ccccc2)cc1 (some centres undefined) (H-[Nrpe][Gly(N-piperonyl)][Nrpe][N(4-MeOBn)Gly][ξK]([ξK-ξK-Gly])[ξK][ξK]-NH2) | inactive |
| C=CCNCC(=O)N(CCOC)CC(=O)N(CC=C)CC(=O)N(CCOC)CC(=O)N(CC=C)CC(=O)NCC(=O)NC(CCCCN)C(=O)NC(CCSC)C(=O)NCCCCC(NC(=O)C(CCSC)NC(=O)C(CCCCN)NC(=O)CNC(=O)CN(CC=C)C(=O)CN(CCOC)C(=O)CN(CC=C)C(=O)CN(CCOC)C(=O)CNCC=C)C(N)=O (centres undefined) (I: H-[NAllylGly][Nme][NAllylGly][Nme][NAllylGly]GKMK-NH2 / II: H-[NAllylGly][Nme][NAllylGly][Nme][NAllylGly]GKM; amide I:9-II:C; configuration not given here) | inactive |
| COc1ccc(CN(CC(=O)N(CCCCN)CC(=O)NC(CCCCN)C(=O)NC(CCCCN)C(=O)NC(CCSC)C(=O)NCCCCC(NC(=O)C(CCSC)NC(=O)C(CCCCN)NC(=O)C(CCCCN)NC(=O)CN(CCCCN)C(=O)CN(Cc2ccc(OC)cc2)C(=O)CN(C(=O)CN(Cc2ccc3c(c2)OCO3)C(=O)CN[C@H](C)c2ccccc2)[C@H](C)c2ccccc2)C(N)=O)C(=O)CN(C(=O)CN(Cc2ccc3c(c2)OCO3)C(=O)CN[C@H](C)c2ccccc2)[C@H](C)c2ccccc2)cc1 (some centres undefined) (I: H-[Nrpe][Gly(N-piperonyl)][Nrpe][N(4-MeOBn)Gly][Nlys][ξK][ξK][ξM][ξK]-NH2 / II: H-[Nrpe][Gly(N-piperonyl)][Nrpe][N(4-MeOBn)Gly][Nlys][ξK][ξK][ξM]; amide I:9-II:C) | Active |
| COc1ccc(CN(CC(=O)NC(CCCCNC(=O)C(CCCCN)NC(=O)C(CCCCN)NC(=O)CN)C(=O)NCCCCC(NC(=O)CN(Cc2ccc(OC)cc2)C(=O)CN(C(=O)CN(Cc2ccc3c(c2)OCO3)C(=O)CN[C@H](C)c2ccccc2)[C@H](C)c2ccccc2)C(=O)NC(CCCCN)C(=O)NC(CCCCN)C(=O)NC(CCSC)C(N)=O)C(=O)CN(C(=O)CN(Cc2ccc3c(c2)OCO3)C(=O)CN[C@H](C)c2ccccc2)[C@H](C)c2ccccc2)cc1 (some centres undefined) (I: H-[Nrpe][Gly(N-piperonyl)][Nrpe][N(4-MeOBn)Gly][ξK][ξK][ξK][ξM]-NH2 / II: H-[Nrpe][Gly(N-piperonyl)][Nrpe][N(4-MeOBn)Gly][ξK]([ξK-ξK-Gly]); amide I:5-II:C) | Active |
| COc1ccc(CN(CC(=O)NC(CCCCNC(=O)C(CCCCN)NC(=O)C(CCCCN)NC(=O)CN)C(=O)NCCOCCOCC(=O)NCCC(=O)NCCCCC(NC(=O)CN(Cc2ccc(OC)cc2)C(=O)CN(C(=O)CN(Cc2ccc3c(c2)OCO3)C(=O)CN[C@H](C)c2ccccc2)[C@H](C)c2ccccc2)C(=O)NC(CCCCN)C(=O)NC(CCCCN)C(=O)NC(CCSC)C(N)=O)C(=O)CN(C(=O)CN(Cc2ccc3c(c2)OCO3)C(=O)CN[C@H](C)c2ccccc2)[C@H](C)c2ccccc2)cc1 (some centres undefined) (I: H-[Nrpe][Gly(N-piperonyl)][Nrpe][N(4-MeOBn)Gly][ξK][ξK][ξK][ξM]-NH2 / II: H-[Nrpe][Gly(N-piperonyl)][Nrpe][N(4-MeOBn)Gly][ξK]([ξK-ξK-Gly])[AEEA][βAla]; amide I:5-II:C) | Active |
| COc1ccc(CN(CC(=O)NC(CCCCNC(=O)C(CCCCN)NC(=O)C(CCCCN)NC(=O)CN)C(=O)NCCC(=O)NCCCCC(NC(=O)CN(Cc2ccc(OC)cc2)C(=O)CN(C(=O)CN(Cc2ccc3c(c2)OCO3)C(=O)CN[C@H](C)c2ccccc2)[C@H](C)c2ccccc2)C(=O)NC(CCCCN)C(=O)NC(CCCCN)C(=O)NC(CCSC)C(N)=O)C(=O)CN(C(=O)CN(Cc2ccc3c(c2)OCO3)C(=O)CN[C@H](C)c2ccccc2)[C@H](C)c2ccccc2)cc1 (some centres undefined) (I: H-[Nrpe][Gly(N-piperonyl)][Nrpe][N(4-MeOBn)Gly][ξK][ξK][ξK][ξM]-NH2 / II: H-[Nrpe][Gly(N-piperonyl)][Nrpe][N(4-MeOBn)Gly][ξK]([ξK-ξK-Gly])[βAla]; amide I:5-II:C) | Active |
| COc1ccc(CN(CC(=O)NC(CCCCNC(=O)C(CCCCNC(=O)C(CCCCN)NC(=O)C(CCCCN)NC(=O)C(CCSC)NC(=O)CN)NC(=O)CN(Cc2ccc(OC)cc2)C(=O)CN(C(=O)CN(Cc2ccc3c(c2)OCO3)C(=O)CN[C@H](C)c2ccccc2)[C@H](C)c2ccccc2)C(=O)NCCCCC(NC(=O)CN(Cc2ccc(OC)cc2)C(=O)CN(C(=O)CN(Cc2ccc3c(c2)OCO3)C(=O)CN[C@H](C)c2ccccc2)[C@H](C)c2ccccc2)C(=O)NC(CCCCN)C(=O)NC(CCCCN)C(=O)NC(CCSC)C(N)=O)C(=O)CN(C(=O)CN(Cc2ccc3c(c2)OCO3)C(=O)CN[C@H](C)c2ccccc2)[C@H](C)c2ccccc2)cc1 (some centres undefined) (I: H-[Nrpe][Gly(N-piperonyl)][Nrpe][N(4-MeOBn)Gly][ξK][ξK][ξK][ξM]-NH2 / II: H-[Nrpe][Gly(N-piperonyl)][Nrpe][N(4-MeOBn)Gly][ξK]([ξK-ξK-ξM-Gly]) / III: H-[Nrpe][Gly(N-piperonyl)][Nrpe][N(4-MeOBn)Gly][ξK]; amide I:5-III:C, II:C-III:5) | Active |

Test system: HCC4017
Test: Cytotoxicity against human HCC4017 cells assessed as decrease in cell viability at 0.001 to 50 uM after 24 hrs by calcein AM dye-based fluorescence assay
Assay type: functional

| Structure (SMILES) | Activity |
| --- | --- |
| COc1ccc(CN(CC(=O)NC(CCCCNC(=O)C(CCCCNC(=O)C(CCCCN)NC(=O)C(CCCCN)NC(=O)C(CCSC)NC(=O)CN)NC(=O)CN(Cc2ccc(OC)cc2)C(=O)CN(C(=O)CN(Cc2ccc3c(c2)OCO3)C(=O)CN[C@H](C)c2ccccc2)[C@H](C)c2ccccc2)C(=O)NCCCCC(NC(=O)CN(Cc2ccc(OC)cc2)C(=O)CN(C(=O)CN(Cc2ccc3c(c2)OCO3)C(=O)CN[C@H](C)c2ccccc2)[C@H](C)c2ccccc2)C(=O)NC(CCCCN)C(=O)NC(CCCCN)C(=O)NC(CCSC)C(N)=O)C(=O)CN(C(=O)CN(Cc2ccc3c(c2)OCO3)C(=O)CN[C@H](C)c2ccccc2)[C@H](C)c2ccccc2)cc1 (some centres undefined) (I: H-[Nrpe][Gly(N-piperonyl)][Nrpe][N(4-MeOBn)Gly][ξK][ξK][ξK][ξM]-NH2 / II: H-[Nrpe][Gly(N-piperonyl)][Nrpe][N(4-MeOBn)Gly][ξK]([ξK-ξK-ξM-Gly]) / III: H-[Nrpe][Gly(N-piperonyl)][Nrpe][N(4-MeOBn)Gly][ξK]; amide I:5-III:C, II:C-III:5) | Active |
